Test results: PMC10056986 (Pharmaceuticals, 2023)
Like-named read-outs stand apart in the source and are kept apart here.

Key:
[1] = Cytotoxicity in parallel to antiviral assay; conditions: human
EV71 Shenzhen/120F1/09 = test: microbe, parasite or virus in culture; assay type: cell-based, human enterovirus 71; conditions: Enterovirus A, EV71, RD, read-out: EC50 for Virus
[2] = Cytotoxicity in parallel to antiviral assay; conditions: African green monkey
HSV-1 GHSV-UL46 = test: microbe, parasite or virus in culture; assay type: cell-based, herpes simplex virus type 1; conditions: Human alphaherpesvirus 1, Vero C1008, read-out: EC50 for Virus
in vitro [3] = conditions: human
HBV = test: microbe, parasite or virus in culture; assay type: cell-based; conditions: Hepatitis B virus, HepG2.2.15, read-out: EC50 for Virus
[4] = system: Influenza virus A/WS/33 (H1N1); test: microbe, parasite or virus in culture; assay type: cell-based; conditions: H1N1, MDCK, read-out: EC50 (mean ± SD)
[5] = system: Influenza virus A/PR/8/34 (H1N1); test: microbe, parasite or virus in culture; assay type: cell-based; conditions: H1N1|PR/8, MDCK, read-out: EC50 (mean ± SD)
A/Anhui/01/2013 (H7N9) = test: microbe, parasite or virus in culture; assay type: cell-based, avian influenza virus; conditions: Influenza A virus, H7N9, MDCK, read-out: IC50 (mean ± SD)
[6] = system: influenza A virus WSN/33 (H1N1); set-up: species or system BALB/c mice; conditions: mouse, in vivo
[7] = system: A/Guangzhou/39715/2014 (H5N6); test: microbe, parasite or virus in culture; assay type: cell-based, avian influenza virus; conditions: unidentified influenza virus, H5N6, MDCK, read-out: IC50 (mean ± SD)
[8] = system: influenza A virus/California/07/2009 (H1N1); set-up: species or system ferrets; conditions: in vivo, po, 25 mg/kg/day
[9] = system: Influenza virus A/WSN/33 (H1N1); test: microbe, parasite or virus in culture; assay type: cell-based; conditions: MDCK, read-out: EC50 (mean ± SD)
A/PR/8/34 (H1N1) = system: A/PR/8/34 (H1N1); set-up: species or system BALB/c mice; conditions: mouse, in vivo
Influenza virus B/Lee/40 = test: microbe, parasite or virus in culture; assay type: cell-based; conditions: MDCK, read-out: EC50 (mean ± SD)
[10] = system: Influenza virus A/Weiss/43(H1N1); test: microbe, parasite or virus in culture; assay type: cell-based; conditions: H1N1, MDCK, read-out: EC50 (mean ± SD)
[11] = system: Influenza virus A/Mal/302/54 (H1N1); test: microbe, parasite or virus in culture; assay type: cell-based; conditions: H1N1, MDCK, read-out: EC50 (mean ± SD)
[12] = system: A/Qingyuan/GIRD01/2017 (H7N9); test: microbe, parasite or virus in culture; assay type: cell-based, avian influenza virus; conditions: Influenza A virus, H7N9, MDCK, read-out: IC50 (mean ± SD)
[13] = system: influenza A virus WSN/33 (H1N1); set-up: species or system BALB/c mice; conditions: mouse, in vivo; remark: listed apart in the source
[14] = Cytotoxicity in MDCK cells without viral infection; conditions: dog
MDCK cells = test: Cytotoxicity in MDCK cells without viral infection; conditions: MDCK, 37 °C
[15] = Cytotoxicity in parallel to antiviral assay; conditions: human; remark: listed apart in the source
HRV 1B = test: microbe, parasite or virus in culture; assay type: cell-based; conditions: Human rhinovirus sp., H1-HeLa, read-out: EC50 for Virus
[16] = system: influenza A virus WSN/33 (H1N1); set-up: species or system BALB/c mice; conditions: mouse, in vivo; remark: listed apart in the source
EPHA2 = EPHA2 (Homo sapiens, UniProt P29317); test: biochemical
EPHA2, sequence (P29317 24-976): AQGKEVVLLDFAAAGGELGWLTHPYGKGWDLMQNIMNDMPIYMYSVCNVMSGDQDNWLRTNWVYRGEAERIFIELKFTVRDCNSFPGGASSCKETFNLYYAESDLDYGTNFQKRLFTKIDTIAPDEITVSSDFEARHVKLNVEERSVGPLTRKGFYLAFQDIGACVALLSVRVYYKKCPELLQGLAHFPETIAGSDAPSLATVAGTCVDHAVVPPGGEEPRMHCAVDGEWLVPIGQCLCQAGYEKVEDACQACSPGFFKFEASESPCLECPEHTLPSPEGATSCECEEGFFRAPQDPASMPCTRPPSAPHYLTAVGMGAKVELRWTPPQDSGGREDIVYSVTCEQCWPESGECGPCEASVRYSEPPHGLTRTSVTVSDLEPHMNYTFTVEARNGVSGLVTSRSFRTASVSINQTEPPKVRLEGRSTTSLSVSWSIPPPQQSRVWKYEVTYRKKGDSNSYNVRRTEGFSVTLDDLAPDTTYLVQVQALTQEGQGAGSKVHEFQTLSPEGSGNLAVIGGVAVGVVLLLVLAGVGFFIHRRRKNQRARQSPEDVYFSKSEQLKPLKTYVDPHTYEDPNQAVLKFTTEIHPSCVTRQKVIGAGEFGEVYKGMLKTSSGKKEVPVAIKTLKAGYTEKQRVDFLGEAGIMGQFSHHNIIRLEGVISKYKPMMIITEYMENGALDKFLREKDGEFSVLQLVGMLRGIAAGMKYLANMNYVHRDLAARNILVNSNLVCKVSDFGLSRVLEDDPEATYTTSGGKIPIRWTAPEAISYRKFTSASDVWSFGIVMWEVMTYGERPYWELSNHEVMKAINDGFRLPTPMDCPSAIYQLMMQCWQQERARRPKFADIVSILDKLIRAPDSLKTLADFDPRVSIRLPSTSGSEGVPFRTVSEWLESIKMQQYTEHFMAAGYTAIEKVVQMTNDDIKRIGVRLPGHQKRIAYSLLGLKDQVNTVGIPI

[17] = system: Influenza virus A/California/2/2014 (H3N2); test: microbe, parasite or virus in culture; assay type: cell-based; conditions: H3N2, MDCK, read-out: EC50 (mean ± SD)
MST4 = MST4 (Homo sapiens, UniProt Q9P289); test: biochemical
MST4, sequence (Q9P289 whole entry): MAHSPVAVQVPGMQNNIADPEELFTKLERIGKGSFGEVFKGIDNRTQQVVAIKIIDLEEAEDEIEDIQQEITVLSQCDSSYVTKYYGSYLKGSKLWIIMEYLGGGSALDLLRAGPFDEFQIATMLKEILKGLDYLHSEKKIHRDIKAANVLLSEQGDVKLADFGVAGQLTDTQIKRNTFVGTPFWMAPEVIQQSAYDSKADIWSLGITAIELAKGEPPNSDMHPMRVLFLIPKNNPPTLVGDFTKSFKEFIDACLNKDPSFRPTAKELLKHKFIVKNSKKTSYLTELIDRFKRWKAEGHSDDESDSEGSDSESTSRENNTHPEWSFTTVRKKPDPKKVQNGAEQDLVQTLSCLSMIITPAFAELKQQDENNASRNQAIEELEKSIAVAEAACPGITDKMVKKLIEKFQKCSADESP

TAOK2 = TAOK2 (Homo sapiens, UniProt Q9UL54); test: biochemical
TAOK2, sequence (Q9UL54 whole entry): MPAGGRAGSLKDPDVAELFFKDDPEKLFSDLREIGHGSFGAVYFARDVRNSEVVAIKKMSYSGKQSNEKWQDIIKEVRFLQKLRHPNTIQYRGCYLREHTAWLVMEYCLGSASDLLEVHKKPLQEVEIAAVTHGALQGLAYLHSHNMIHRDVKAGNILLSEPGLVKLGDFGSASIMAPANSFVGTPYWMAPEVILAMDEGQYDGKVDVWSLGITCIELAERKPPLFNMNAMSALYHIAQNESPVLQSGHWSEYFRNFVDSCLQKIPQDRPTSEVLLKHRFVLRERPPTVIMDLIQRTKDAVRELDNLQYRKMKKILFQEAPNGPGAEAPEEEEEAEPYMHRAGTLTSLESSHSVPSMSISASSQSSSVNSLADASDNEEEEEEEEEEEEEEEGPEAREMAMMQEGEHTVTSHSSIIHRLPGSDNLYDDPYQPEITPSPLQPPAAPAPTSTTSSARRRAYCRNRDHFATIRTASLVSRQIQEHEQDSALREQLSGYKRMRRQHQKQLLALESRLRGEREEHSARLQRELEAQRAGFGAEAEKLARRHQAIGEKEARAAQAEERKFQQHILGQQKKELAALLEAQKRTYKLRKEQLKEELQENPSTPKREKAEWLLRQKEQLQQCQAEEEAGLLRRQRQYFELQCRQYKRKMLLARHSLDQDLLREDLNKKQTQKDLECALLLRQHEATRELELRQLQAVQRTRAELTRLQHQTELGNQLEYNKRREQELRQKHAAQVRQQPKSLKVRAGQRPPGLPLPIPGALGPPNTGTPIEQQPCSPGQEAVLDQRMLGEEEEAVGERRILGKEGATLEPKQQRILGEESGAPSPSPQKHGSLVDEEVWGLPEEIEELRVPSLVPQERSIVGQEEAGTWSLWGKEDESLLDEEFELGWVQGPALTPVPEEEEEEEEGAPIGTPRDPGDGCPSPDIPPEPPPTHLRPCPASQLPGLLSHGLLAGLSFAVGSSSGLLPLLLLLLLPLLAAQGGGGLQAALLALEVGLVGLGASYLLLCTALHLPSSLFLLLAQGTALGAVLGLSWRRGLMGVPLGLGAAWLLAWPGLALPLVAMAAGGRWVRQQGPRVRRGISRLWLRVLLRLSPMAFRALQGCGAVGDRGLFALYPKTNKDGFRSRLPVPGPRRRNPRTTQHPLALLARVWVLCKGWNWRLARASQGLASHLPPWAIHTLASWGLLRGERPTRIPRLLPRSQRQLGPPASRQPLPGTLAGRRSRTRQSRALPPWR

LCK = LCK (Homo sapiens, UniProt P06239); test: biochemical
CDK2 = CDK2 (Homo sapiens, UniProt P24941); test: biochemical
ABL1 = ABL1 (Homo sapiens, UniProt P00519); test: biochemical
Aurora A = Aurora A (Homo sapiens, UniProt O14965); test: biochemical
JNK1 = JNK1 (Homo sapiens, UniProt P45983); test: biochemical
TNIK = TNIK (Homo sapiens, UniProt Q9UKE5); test: biochemical
SRC = SRC (Homo sapiens, UniProt P12931); test: biochemical
in vitro [18] = conditions: dog, CC50 (mean ± SD)
MAP4K4 = MAP4K4 (Homo sapiens, UniProt O95819); test: biochemical
FGFR1 = FGFR1 (Homo sapiens, UniProt P11362); test: biochemical
PKA = PKA (Homo sapiens, UniProt P17612); test: biochemical
[19] = system: Influenza virus A/California/07/2009 (H1N1)pdm09; test: microbe, parasite or virus in culture; assay type: cell-based; conditions: H1N1, MDCK, read-out: EC50 (mean ± SD)
MAPKAPK2 = MAPKAPK2 (Homo sapiens, UniProt P49137); test: biochemical
KDR = KDR (Homo sapiens, UniProt P35968); test: biochemical
GSK3 beta = GSK3 beta (Homo sapiens, UniProt P49841); test: biochemical
CHK1 = CHK1 (Homo sapiens, UniProt O14757); test: biochemical
DYRK3 = DYRK3 (Homo sapiens, UniProt O43781); test: biochemical
DYRK3, sequence (O43781 whole entry): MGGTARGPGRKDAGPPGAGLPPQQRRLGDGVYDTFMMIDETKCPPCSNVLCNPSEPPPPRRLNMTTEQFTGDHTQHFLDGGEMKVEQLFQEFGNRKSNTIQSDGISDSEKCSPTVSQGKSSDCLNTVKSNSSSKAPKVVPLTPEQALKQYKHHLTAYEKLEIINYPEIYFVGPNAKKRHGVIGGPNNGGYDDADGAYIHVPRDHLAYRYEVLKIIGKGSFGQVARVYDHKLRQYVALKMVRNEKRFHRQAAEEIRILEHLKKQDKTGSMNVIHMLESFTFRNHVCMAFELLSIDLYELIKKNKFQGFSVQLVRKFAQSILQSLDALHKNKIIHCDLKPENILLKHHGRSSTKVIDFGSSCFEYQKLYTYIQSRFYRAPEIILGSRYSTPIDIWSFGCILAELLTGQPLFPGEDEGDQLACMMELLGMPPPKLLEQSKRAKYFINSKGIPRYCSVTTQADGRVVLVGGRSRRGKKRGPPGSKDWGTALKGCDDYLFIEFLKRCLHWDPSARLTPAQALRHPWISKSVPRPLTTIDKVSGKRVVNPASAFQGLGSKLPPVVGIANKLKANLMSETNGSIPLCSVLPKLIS

[20] = system: Influenza virus A/Hong Kong/8/68 (H3N2); test: microbe, parasite or virus in culture; assay type: cell-based; conditions: unidentified influenza virus, H3N2, MDCK, read-out: EC50 (mean ± SD)
MINK = MINK (Homo sapiens, UniProt Q8N4C8); test: biochemical
JAK2 = JAK2 (Homo sapiens, UniProt O60674); test: biochemical
JAK2, sequence (O60674 whole entry): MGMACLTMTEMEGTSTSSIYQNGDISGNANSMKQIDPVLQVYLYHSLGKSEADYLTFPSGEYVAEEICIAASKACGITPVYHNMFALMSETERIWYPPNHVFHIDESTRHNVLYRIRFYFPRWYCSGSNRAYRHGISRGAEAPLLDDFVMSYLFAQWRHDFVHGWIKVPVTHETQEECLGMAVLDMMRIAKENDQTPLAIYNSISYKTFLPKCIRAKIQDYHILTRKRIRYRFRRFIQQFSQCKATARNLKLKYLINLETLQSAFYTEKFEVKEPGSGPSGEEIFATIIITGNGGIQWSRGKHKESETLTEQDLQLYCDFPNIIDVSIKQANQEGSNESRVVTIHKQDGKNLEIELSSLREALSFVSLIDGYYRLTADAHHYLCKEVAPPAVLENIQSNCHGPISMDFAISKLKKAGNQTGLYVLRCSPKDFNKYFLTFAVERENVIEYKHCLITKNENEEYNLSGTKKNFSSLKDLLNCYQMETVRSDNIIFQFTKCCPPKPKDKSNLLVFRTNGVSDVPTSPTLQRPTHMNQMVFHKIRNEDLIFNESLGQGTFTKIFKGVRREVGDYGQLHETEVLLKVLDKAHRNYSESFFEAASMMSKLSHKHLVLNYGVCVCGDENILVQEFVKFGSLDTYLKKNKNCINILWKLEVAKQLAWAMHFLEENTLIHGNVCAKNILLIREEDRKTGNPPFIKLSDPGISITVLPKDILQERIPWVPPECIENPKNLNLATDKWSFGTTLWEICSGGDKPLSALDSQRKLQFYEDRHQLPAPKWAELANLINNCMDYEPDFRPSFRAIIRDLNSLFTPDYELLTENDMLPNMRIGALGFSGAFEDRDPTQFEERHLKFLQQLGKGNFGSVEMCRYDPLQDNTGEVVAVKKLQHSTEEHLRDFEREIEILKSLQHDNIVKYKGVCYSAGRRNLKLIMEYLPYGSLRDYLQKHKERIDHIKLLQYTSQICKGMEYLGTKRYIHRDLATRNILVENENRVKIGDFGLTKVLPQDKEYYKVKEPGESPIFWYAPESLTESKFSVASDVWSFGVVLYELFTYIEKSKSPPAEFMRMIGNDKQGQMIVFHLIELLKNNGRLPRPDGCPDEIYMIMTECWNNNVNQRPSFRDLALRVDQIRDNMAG

PDK1 = PDK1 (Homo sapiens, UniProt O15530); test: biochemical
CAMK2 alpha = CAMK2 alpha (Homo sapiens, UniProt Q9UQM7); test: biochemical
CK1 alpha = CK1 alpha (Homo sapiens, UniProt P48729); test: biochemical
CK1 alpha, sequence (P48729 whole entry): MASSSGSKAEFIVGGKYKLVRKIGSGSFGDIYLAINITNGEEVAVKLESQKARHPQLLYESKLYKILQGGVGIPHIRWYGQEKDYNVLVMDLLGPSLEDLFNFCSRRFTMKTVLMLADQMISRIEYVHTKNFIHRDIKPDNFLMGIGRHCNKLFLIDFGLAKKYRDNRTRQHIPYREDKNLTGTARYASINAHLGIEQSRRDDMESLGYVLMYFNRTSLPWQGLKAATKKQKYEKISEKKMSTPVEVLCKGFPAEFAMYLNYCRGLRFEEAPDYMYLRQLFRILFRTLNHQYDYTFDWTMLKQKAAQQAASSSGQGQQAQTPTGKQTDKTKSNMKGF

p38 alpha = p38 alpha (Homo sapiens, UniProt Q16539); test: biochemical
p38 alpha, sequence (Q16539 whole entry): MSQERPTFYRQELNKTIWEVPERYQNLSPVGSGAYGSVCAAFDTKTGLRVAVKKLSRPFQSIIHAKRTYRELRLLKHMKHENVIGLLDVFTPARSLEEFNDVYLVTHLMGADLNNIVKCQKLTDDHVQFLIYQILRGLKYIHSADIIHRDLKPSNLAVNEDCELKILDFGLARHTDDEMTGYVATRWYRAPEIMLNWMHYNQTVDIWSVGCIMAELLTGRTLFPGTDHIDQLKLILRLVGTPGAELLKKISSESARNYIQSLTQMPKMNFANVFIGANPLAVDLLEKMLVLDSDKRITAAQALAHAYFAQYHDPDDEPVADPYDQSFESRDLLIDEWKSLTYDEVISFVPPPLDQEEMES

[21] = target: influenza virus polymerase (PB1, PB2, NP, PA from A/California/04/2009 (H1N1) pdm09) (Influenza A virus, UniProt C3W5R8+C3W5R9); assay type: cell-based

CCOC(=O)/C=C/[C@H](C[C@@H]1CCNC1=O)NC(=O)[C@@H](CC(=O)[C@@H](NC(=O)c1cc(C)on1)C(C)C)Cc1ccc(F)cc1 [AG7088, reference compound]
CC50 [1]: > 1 µM
EC50 (EV71 Shenzhen/120F1/09): 0.012 µM

Nc1nc2c(ncn2COCCO)c(=O)[nH]1 [Acyclovir, reference compound]
CC50 [2]: > 10 µM
EC50 (HSV-1 GHSV-UL46): 0.655 µM

C=C1[C@H](CO)[C@@H](O)C[C@@H]1n1cnc2c(=O)[nH]c(N)nc21 [Entecavir, reference compound]
CC50 (in vitro [3]): > 0.02 µM
EC50 (HBV): 0.000338 µM

CCOC(=O)C1=C[C@@H](OC(CC)CC)[C@H](NC(C)=O)[C@@H](N)C1 [Oseltamivir]
EC50 [4]: 2.43 ± 1.24 µM
EC50 [5]: 4.89 ± 7.37 µM
IC50 (A/Anhui/01/2013 (H7N9)): 175 µM
body weight of mice [6]: did not significantly reduce the body weight
survival rate vs vehicle [6]: could improve the survival rate
time of death relative to vehicle group [6]: died after 7 h—earlier than in the vehicle group
IC50 [7]: 1650 µM
viral load in nasal lavage fluid vs vehicle [8]: decreased significantly
EC50 [9]: 10.1 ± 9.82 µM
mortality rate (A/PR/8/34 (H1N1)): 90%
EC50 (Influenza virus B/Lee/40): 2.94 ± 3.62 µM
EC50 [10]: 5.62 ± 2.78 µM
EC50 [11]: 1.34 ± 1.92 µM
IC50 [12]: 1690 µM
animals died (of n = 8) [13]: five
day on which body weight of surviving mice began to recover [13]: 9 days
day on which weight of surviving mice increased gradually [13]: 9th
mice died (of n = 8) [13]: three
CC50 [14]: > 100 µM
CC50 (MDCK cells): > 100 µM

Cc1cc(CCCOc2c(C)cc(-c3noc(C(F)(F)F)n3)cc2C)on1 [Pleconaril, reference compound]
CC50 [15]: > 5 µM
EC50 (HRV 1B): 0.028 µM

O=C(O)[C@H]1C2CCC(CC2)[C@@H]1Nc1nc(-c2c[nH]c3ncc(F)cc23)ncc1F [VX-787, reference compound]
EC50 [4]: 0.000206 ± 6.1e-05 µM
EC50 [5]: 0.00076 ± 0.000355 µM
day on which mice began to regain body weight [16]: 4 days
IC50 (EPHA2): > 10 µM
EC50 [17]: 0.00015 ± 2e-05 µM
IC50 (MST4): > 10 µM
IC50 (TAOK2): > 10 µM
IC50 (A/Anhui/01/2013 (H7N9)): 0.000834 ± 0.000204 µM
IC50 (LCK): > 10 µM
body weight of mice [6]: did not significantly reduce the body weight
survival rate vs vehicle [6]: could improve the survival rate
time of death relative to vehicle group [6]: died after 7 h—earlier than in the vehicle group
IC50 (CDK2): > 10 µM
IC50 [7]: 9.18e-05 ± 1.45e-05 µM
IC50 (ABL1): > 10 µM
viral load in nasal lavage fluid vs vehicle [8]: decreased but showed no statistical significance
IC50 (Aurora A): 1.11 µM
IC50 (JNK1): > 10 µM
IC50 (TNIK): > 3.33 µM
IC50 (SRC): > 10 µM
CC50 (in vitro [18]): 21.1 ± 9.76 µM
EC50 [9]: 0.000315 ± 7e-05 µM
mortality rate (A/PR/8/34 (H1N1)): 70%
IC50 (MAP4K4): 1.78 µM
IC50 (FGFR1): > 10 µM
EC50 (Influenza virus B/Lee/40): > 0.01 µM
EC50 [10]: 0.000255 ± 5.5e-05 µM
IC50 (PKA): > 10 µM
EC50 [19]: 0.00024 ± 0.00014 µM
EC50 [11]: 0.000295 ± 0.000111 µM
IC50 (MAPKAPK2): > 10 µM
IC50 (KDR): > 10 µM
IC50 [12]: 0.00192 ± 0.000492 µM
IC50 (GSK3 beta): > 3.33 µM
IC50 (CHK1): > 10 µM
IC50 (DYRK3): > 10 µM
EC50 [20]: 0.000162 ± 3.4e-05 µM
IC50 (MINK): > 3.33 µM
animals died (of n = 8) [13]: four
day on which body weight of surviving mice began to recover [13]: 8 days
day on which weight of surviving mice increased gradually [13]: 8th
mice died (of n = 8) [13]: no mice died
survival rate [13]: 100%
IC50 (JAK2): > 10 µM
IC50 (PDK1): > 10 µM
IC50 (CAMK2 alpha): > 10 µM
IC50 (CK1 alpha): > 10 µM
IC50 (p38 alpha): > 10 µM
IC50 ([21]; read-out: IC50, Mean ± SEM): 0.00145 ± 0.00034 µM
IC50 ([21]; read-out: IC50, experiment 1): 0.00128 µM
IC50 ([21]; read-out: IC50, experiment 2): 0.00123 µM
IC50 ([21]; read-out: IC50, experiment 3): 0.00184 µM
